Results published in US20260355182A1, “ISOQUINOLINE DERIVATIVE, SYNTHESIS METHOD THEREFOR, AND USE THEREOF” (Harbin Gloria Pharmaceuticals Co., Ltd., priority 2023, published 2026).

Experiments:
db/db mice [1] = assay: Hypoglycemic effect in diabetic model db/db mice, intraperitoneal; format: in vivo; details: 4 hours
Method: Gene knockout db/db mice are a classic model of hyperglycemia and obesity. Under normal feeding conditions, mice aged 3 months or older developed hyperglycemia and obesity. After the mice were provided with only drinking water (fasted) for 6 hours, blood was collected from the tail of the mice to measure blood glucose values. Subsequently, different drugs, including saline (control), liraglutide at 0.6 mg/Kg, low-concentration T6 (T6 low, 0.1 mg/Kg), and high-concentration T6 (T6 high, 0.5 mg/Kg), were injected intraperitoneally. 4 hours later, blood was collected from the tail of the mice to measure the blood glucose levels. Each group consisted of 6 mice. Blood glucose levels before administration (Vbefore) and after administration (Vafter) were obtained for each mouse. The effect of the drug on blood glucose (%) was calculated as follows:
(Vbefore−Vafter)×100/Vbefore.

SKN cells (Pgk1 shRNA) = assay: Mitochondrial respiration in SKN cells with Pgk1 shRNA (Seahorse); format: cell-based
Method: SKN cells were transduced with Pgk1 shRNA to reduce endogenous Pgk1 expression and were subsequently treated with vehicle control or compound T6. […] GAPDH was used as a loading control; B) mitochondrial respiration was assessed by Seahorse extracellular flux analysis and is expressed as oxygen consumption rate (OCR; pmol/min/10^4 cells). Oligomycin, FCCP, and rotenone plus antimycin were sequentially added to evaluate basal respiration, ATP-linked respiration, maximal respiratory capacity, and non-mitochondrial respiration. […] In contrast, Pgk1 knockdown reduced mitochondrial respiratory activity and diminished the respiration-enhancing effect of T6. […] Data are presented as mean±SD, with individual points representing replicate measurements. Statistical significance is indicated as **P<0.001; ns, not significant. […] The data support Pgk1 as a functional cellular target mediating the metabolic activity of T6.

SOD1G93A transgenic mice = assay: High-copy-number SOD1G93A ALS model mice, body weight and survival; format: in vivo; details: 0.2 mg/kg i.p. once daily from 80 days of age
Method: High-copy-number SOD1G93A transgenic mice, a genetic model of amyotrophic lateral sclerosis (ALS), were treated with compound T6 or vehicle control beginning at 80 days of age. T6 was administered once daily by intraperitoneal injection at 0.2 mg/kg, and control animals received PBS. Disease-associated slowing of movement was observed beginning at approximately 90 days of age. […] The control group included 7 mice, and the T6-treated group included 5 mice. T6 treatment shifted the survival curve to the right, indicating an extension of survival after initiation of treatment (survival analysis, p=0.072).

db/db mice [2] = assay: Chronic treatment assay, HbA1c in db/db mice (ELISA); format: in vivo; details: drinking water 2 weeks, particularly T6 1.5 mg/kg, vs untreated control
Method: The db/db mice were used to evaluate the glucose-lowering activity of compound T6 in comparison with reference metabolic agents (TZ 0.5 mg/Kg, liraglutide 0.6 mg/Kg, T6 0.5 mg/Kg). In FIG. 15, A) for the acute glucose-response assay, drugs were administered to non-fasted db/db mice. Immediately after drug administration (s. c.), mice were deprived of food and water, and blood glucose levels were measured from tail blood samples 2 h later. The relative percentage change in blood glucose was calculated by comparing glucose levels before and after treatment in the same animal. […] HbA1c levels were then measured using a glycated hemoglobin A1c enzyme-linked immunosorbent assay, also referred to as a mouse HbA1c ELISA assay. […] Data are presented as mean±error bars, with individual circles representing individual animals. Statistical significance is indicated as P<0.001 (**) and P<0.0001 (***).

Pgk1 = molecular target: T1, Pgk1 (Homo sapiens, UniProt P00558); assay: In vitro biochemical Pgk1 enzymatic activity assay (NADH production); set-up: GAPDH-coupled NADH assay; details: role: activator, 1.6 mM GAP, 1 mM β-NAD, 1 mM ADP
T1 sequence (P00558 1-417): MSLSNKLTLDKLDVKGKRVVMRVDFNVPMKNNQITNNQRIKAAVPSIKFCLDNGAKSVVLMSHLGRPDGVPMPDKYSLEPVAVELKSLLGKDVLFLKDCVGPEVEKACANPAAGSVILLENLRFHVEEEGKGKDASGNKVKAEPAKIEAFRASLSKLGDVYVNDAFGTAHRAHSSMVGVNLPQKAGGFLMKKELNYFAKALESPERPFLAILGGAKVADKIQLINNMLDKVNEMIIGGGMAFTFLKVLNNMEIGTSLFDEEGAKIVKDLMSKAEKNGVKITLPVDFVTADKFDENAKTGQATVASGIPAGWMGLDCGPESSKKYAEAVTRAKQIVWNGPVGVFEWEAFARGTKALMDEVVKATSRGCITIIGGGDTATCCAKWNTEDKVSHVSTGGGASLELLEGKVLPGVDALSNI
Method: Human Pgk1 cDNA was cloned into the pEASYTM-E2 vector (TransGen Biotech) containing a His tag. Protein expression was induced in BL21(DE3) chemocompetent cells (TransGen Biotech) with 0.5 mM IPTG. After lysing cells in extraction buffer (20 mM sodium phosphate, 500 mM NaCl, 5 mM imidazole, 5% glycerol, protease inhibitor cocktail, pH 7.9), the supernatant was purified with nickel beads (AdarBiotech). The His-tagged Pgk1 was eluted with the elution buffer (20 mM sodium phosphate, 500 mM NaCl, 80 mM imidazole, protease inhibitor cocktail, pH 7.9). The activity of Pgk1 can be measured by monitoring the rate of NADH production, as NADH accumulated as the reaction proceeded. Purified Pgk1-His protein ([…]) was added to the reaction buffer (20 mM Tris, 100 mM NaCl, 2 mM DTT, 0.1 mM MgSO4, 10 mM NaHPO4, pH 8.6), and the substrates (1.6 mM GAP, 1 mM β-NAD, 1 mM ADP, 20 ng/μL GAPDH) was added. […] After reaction for 10 minutes at room temperature, the absorbance wavelength at 339 nm was measured using a microplate reader (Molecular Devices, SpectraMax i3x), and this wavelength corresponds to NADH levels.

Nc1nc(N2CCN(C(=O)[C@H]3CCCO3)CC2)cc2cc3c(cc12)OCC3 [Compound T6]
Hypoglycemic effect (low concentration) (db/db mice [1]; 0.1 mg/kg i.p.): significant hypoglycemic effects | Hypoglycemic effect (high concentration) (db/db mice [1]; 0.5 mg/kg i.p.): significant hypoglycemic effects | Basal respiration and maximal respiration (OCR), Pgk1 shRNA cells (SKN cells (Pgk1 shRNA); Pgk1 shRNA-expressing SKN cells): no significant increase | Basal respiration and maximal respiration (OCR), control cells (SKN cells (Pgk1 shRNA); control SKN cells): significantly increased both basal respiration and maximal respiration | Survival (SOD1G93A transgenic mice; vs PBS): delayed mortality | Body weight (SOD1G93A transgenic mice; 81 to 123 days of age): maintained body weight more effectively | HbA1c level (db/db mice [2]): reduced HbA1c levels | Concentration for best activation of Pgk1 (Pgk1; 20 ng/μL GAPDH, pH 8.6, 10 minutes): 0.1 µM | Inhibition of Pgk1 at the tested concentrations (Pgk1; all tested concentrations): none of the concentrations can inhibit Pgk1
